Assay results from patent US8476408B2, “Unacylated ghrelin and analogs as therapeutic agents for vascular remodeling in diabetic patients and treatment of cardiovascular disease” (Alize Pharma SAS, priority 2008, dated 2013).
Where no end group is shown, it is not given here.

Experiments:
CAC [1] = assay: Expansion (S phase) of CAC recovered from treated subjects, cultured with IL-3; format: in vivo, human; settings: cells from treated diabetic patients cultured with IL-3; FIG. 3C
Method: (§1) Peripheral-blood mononuclear cells (PB-MNC) isolated by Fycoll Histopaque 1077 (Sigma) were resuspended in 20% FBS 199 Medium and plated on fibronectin-coated dishes (Biocoat, Becton Dickinson Labware) as described by Hill et al. (Ref. 19). Human UAG studies were performed on CAC recovered from normal donors and diabetic patients. The purity of sorted cells was assessed by FACS analysis (Ref. 20). For experiments, the isolated CAC were cultured under 5% CO2 at 37° C. for 4 days on 20 μg/ml fibronectin-coated dishes in EGM-2 medium containing 10% FBS, hydrocortisone, human Fibroblast Growth Factor, Vascular Endothelial Growth Factor, Insulin Growth Factor 1, ascorbic acid, human Epidermal Growth Factor, gentamicin and amphotericin-B (Cambrex, Walkersville, Md., USA) alone or in combination with 1 μM UAG and 1.2 mg/ml AGE. In selected experiments, isolated CAC were cultured in EBM-2 medium (Cambrex, Walkersville, Md., USA) supplemented with 10 ng/ml of IL-3. […]
(§2) Flow Cytometry—To analyze CAC cell-cycle progression, cells recovered from diabetic, healthy subjects, NOD/SCID, ob/ob and wt mice, were cultured in EBM-2 supplemented with IL-3 (10 ng/ml), FACS analysis was performed as previously described (Ref. 20). Cell surface molecules were evaluated by flow cytometry as previously described (Ref. 24). Frequency of marker-positive cells is expressed as mean±standard deviation (SD).

CAC [2] = assay: CAC senescence (acidic β-gal activity), cultured CAC; format: cell-based, human; settings: FIG. 2A
Method: (§3) Peripheral-blood mononuclear cells (PB-MNC) isolated by Fycoll Histopaque 1077 (Sigma) were resuspended in 20% FBS 199 Medium and plated on fibronectin-coated dishes (Biocoat, Becton Dickinson Labware) as described by Hill et al. (Ref. 19). Human UAG studies were performed on CAC recovered from normal donors and diabetic patients. The purity of sorted cells was assessed by FACS analysis (Ref. 20). For experiments, the isolated CAC were cultured under 5% CO2 at 37° C. for 4 days on 20 μg/ml fibronectin-coated dishes in EGM-2 medium containing 10% FBS, hydrocortisone, human Fibroblast Growth Factor, Vascular Endothelial Growth Factor, Insulin Growth Factor 1, ascorbic acid, human Epidermal Growth Factor, gentamicin and amphotericin-B (Cambrex, Walkersville, Md., USA) alone or in combination with 1 μM UAG and 1.2 mg/ml AGE. In selected experiments, isolated CAC were cultured in EBM-2 medium (Cambrex, Walkersville, Md., USA) supplemented with 10 ng/ml of IL-3. FACS was used to analyze their phenotype (anti-CD45, anti-CD31, anti-CD105, anti-CD14 antibodies were used) (Ref. 22).
CAC Senescence—Senescence was evaluated by acidic β-gal activity on CAC recovered from normal subjects cultured in EGM2 medium for 4 days with UAG or AGE+UAG and saline- or UAG-treated diabetic patients (Ref. 22). […] SA-β-gal-positive cells were counted manually by 3 independent investigators.

CAC [3] = assay: CAC mobilization assay in healthy subjects and diabetic patients; format: in vivo, human; settings: diabetic patients compared to normal subjects, 6 hours treatment; FIG. 3B
Method: (§4) All the subjects underwent the following testing session: • UAG (3.0 μg/kg/h iv. as infusion for 12 h from 0 to 12 hours); • isotonic saline (infusion from 0 to 12 hours).
(§5) All tests were performed starting at 08.30-09.00 a.m. after overnight fasting, 30 minutes after an indwelling catheter had been placed into a forearm vein by slow infusion of isotonic saline. Blood samples were taken at 0 h, 6 h and 12 h.
Mobilization assay—CAC recovered from healthy subjects and diabetic patients, treated with UAG or saline for 6 h and 12 h, were evaluated. Total number of MNC was counted by 3 independent investigators. The percentage of CAC was calculated by comparing CAC obtained from diabetic patients and healthy donors, treated for 6 h and 12 h with UAG, AG or saline, to CAC recovered at time 0.

CAC [4] = assay: Detection of ROS in CAC (DCF-DA assay, FACS); format: cell-based, human
Method: as §3
Detection of ROS—DCF-DA (0.5 μM final concentration) was added to CAC in the indicated culture conditions. At the indicated times, the cells were subjected to FACS analysis and processed as previously described (Ret. 22). H2O2 was used as positive control.

CAC [5] = assay: Expansion (S phase) of CAC recovered from treated mice; format: in vivo; settings: CAC from UAG-challenged mice, IL-3; FIG. 4C
Method: as §2
(§6) Isolation and Culture of CAC from C57BU6J, C57BL/6J ob/ob mice and NOD/SCID mice—6 weeks old C57BL/6J (wt) and ob/ob mice, 7 and 17 weeks old NOD/SCID mice were purchased from Charles River Lab (Lecco, Italy). Animals were anesthetized by intraperitoneal injection with Avertin (100 mg/50ml ip). Blood samples were drawn from left ventricular, as described by Hoff (Ref. 27). Peripheral blood MNC were isolated by Ficoll density-gradient centrifugation. Recovered cells were washed twice Isolated cells were resuspended and were cultured on 20 μg/ml fibronectin-coated dishes in EGM-2 BulletKit Medium. In selected experiments, the isolated CAC were cultured in EBM-2 medium supplemented with 10 ng/ml of IL-3.

CAC [6] = assay: Arterial commitment of CAC recovered from treated mice (Q-RT-PCR); format: in vivo; settings: CAC from UAG-challenged mice cultured with IL-3; FIG. 4D
Method: (§7) RNA isolation and quantitative real-time PCR—CAC from diabetic patients, healthy subjects and mice treated with UAG or saline were cultured in EGM-2 medium. Human arterial and venous cells were used as a positive controls. mRNA quantification was performed by Q-RT-PCR, as previously described (Ref. 24). The relative expression of Ephrin B2, Notch1, Notch4 and EphB4 were calculated by using comparative threshold cycle methods. The human and murine primer sequences used were described (Refs. 25, 26).
as §6

CAC membranes = assay: Competition binding with [125I-Tyr4]-UAG on CAC membranes; parameters: species or system human; settings: 100 nM unlabelled competitor, radioligand 0.25 nM; FIG. 5A
Text: The specific binding of [^125I-Tyr^4]-UAG (calculated as difference between binding in the absence, control, and in the presence of UAG) represented about 75% of the control value (P<0.001) and was detected either on fresh (0.25 and 0.26 fmol) or frozen-thawed (0.20 and 0.33 fmol) CAC membranes from two different cell preparations.

cardiomyocytes = settings: Ref. 8; cited from earlier work
CAC [7] = assay: Arterial specification of recovered human CAC (Q-RT-PCR of Ephrin B2, Notch1, Notch4, EphB4); format: in vivo; settings: cells from treated patients cultured with IL-3; FIG. 3D
Method: as §7

human arteries = settings: Ref. 35; cited from earlier work
CAC [8] = assay: Senescence of CAC recovered from type 2 diabetic patients treated with UAG; parameters: species or system human; settings: 12 hours of treatment in vivo, FIG. 2D
Method: as §4, §5
CAC Senescence—Senescence was evaluated by acidic β-gal activity on CAC recovered from normal subjects cultured in EGM2 medium for 4 days with UAG or AGE+UAG and saline- or UAG-treated diabetic patients (Ref. 22). Briefly, CAC were washed in phosphate-buffered saline, fixed for 3 min at room temperature in 2% paraformaldehyde, washed, and incubated for24 h at 37° C. with fresh SA-β-gal stain solution: 1 mg/ml 5-bromo-4-chloro-3-indolyl β-D-galactopyranoside (X-gal), 5 mM/liter potassium ferrocyanide, 5 mM/liter ferricyanide, 150 mM/liter NaCl, 2 mM/liter MgCl2, 0.01% sodium deoxycholate, and 0.02% Nonidet P-40. SA-β-gal-positive cells were counted manually by 3 independent investigators.

CAC [9] = assay: CAC cell-cycle progression (S phase, FACS); format: cell-based, human; settings: cultured CAC, still evident after 7 days; FIG. 1A
Method: as §1, §2

1-NH2Gly-Ser-Ser-Phe-Leu-Ser-Pro-Glu-His-Gln-Arg-Val-Gln-Gln-Arg-Lys-Glu-Ser-Lys-Lys-Pro-Pro-Ala-Lys-Leu-Gln-Pro-Arg-28 (GSSFLSPEHQRVQQRKESKKPPAKLQPR; ends and bridges not checked; listed as Homo sapiens) [UAG]
cell expansion of recovered cells (S phase) (CAC [1]): underwent cell expansion
number of senescent cells (SA-β-gal activity) (CAC [2]; CAC cultured with UAG alone): reduce the number of senescent cells
number of SA-β-gal positive cells (CAC [2]; UAG added to AGE-cultured CAC): significant reduction in the number of SA-β-gal positive cells
number of recovered CAC (CAC [3]): strong increase in the number of recovered cells
level of ROS production in AGE-cultured cells (CAC [4]; AGE-cultured CAC, FIG. 1C, 1F): reduced
intracellular ROS production in diabetic-recovered cells (CAC [4]; CAC isolated from type 2 diabetic patients, FIG. 1D): reduced intracellular ROS production
baseline level of ROS production (CAC [4]; compared to untreated cells, FIG. 1B, 1E): drastically reduces the baseline level of ROS production
expansion of recovered CAC (CAC [5]): could be expanded
arterial commitment of recovered CAC (CAC [6]): acquire arterial commitment
inhibition of binding of [125I-Tyr4]-UAG to CAC membranes (CAC membranes): inhibited
experimentally-induced cell death (cardiomyocytes): inhibit experimentally-induced cell death
arterial specification (Ephrin B2, Notch1, Notch4 vs EphB4) (CAC [7]): able to undergo arterial specification
vasodilator action (human arteries): vasodilator actions
number of senescent cells (CAC [8]): reduced the number of senescent cells
percentage of cells in S phase (CAC [9]): significant increase in the percentage of cells in S phase
